Measured values as given in patent US20240344020A1, “CULTURE MEDIUM FOR LUNG CANCER EPITHELIAL CELLS, CULTURE METHOD, AND APPLICATION THEREOF” (PRECEDO PHARMACEUTICALS CO., LTD, priority 2021, published 2024).

B1: fibroblast growth factor 7: growth factor from Sino Biological Inc. (protein, UniProt P21781 32-194, looked up)
Fibroblast growth factor 7: CNDMTPEQMATNVNCSSPERHTRSYDYMEGGDIRVRRLFCRTQWYLRIDKRGKVKGTQEMKNNYNIMEIRTVAVGIVAIKGVESEFYLAMNKEGKLYAKKECNEDCNFKELILENHYNTYASAKWTHNGGEMFVALNQKGIPVRGKKTKKEQKTAHFLPMAIT

System: primary lung cancer cells (No. B5)
Assay: Effects of different factors added to basic medium BM on proliferation of primary lung cancer cells (cell count after 12 days)
Type: cell-based, human
Conditions: factor added alone to BM at the concentrations of Table 3; 12 days culture; FIGS. 1A-D
Procedure: Extracellular matrix gel (Matrigel®) (manufactured by BD Biosciences) was diluted with serum-free DMEM/F12 medium at a ratio of 1:100 to prepare an extracellular matrix diluent. The extracellular matrix diluent was added to a 48-well culture plate with 500 μl/well to completely cover the bottom of the wells of the culture plate. The culture plate was let stand for 1 hour in a 37° C. incubator. After 1 hour, the extracellular matrix diluent was removed to provide a Matrigel-coated plate.
Preparation of basic medium (abbreviated as BM): BM was prepared by adding 0.2 vol. % of Primocin (purchased from Invivogen, with a concentration of 50 mg/ml) to the commercial DMEM/F-12 medium to provide a final concentration of 100 μg/ml.
Next, different kinds and concentrations of additive factors (Table 3) were added to the basic medium (BM), so as to prepare culture mediums for lung cancer epithelial cells containing different additive components.
The culture mediums with different components were added at a volume of 500 μl/well to 48-well plates which were coated with extracellular matrix gel (Matrigel). Lung cancer cells (No. B5) isolated from lung cancer tissues according to the same method as described in Example 1 were inoculated at a cell density of 2×10^4 cells/cm^2 in the above-mentioned 48-well culture plates which were coated with Matrigel. After surface disinfection, the plates were placed in a 37° C., 5% CO2 incubator (purchased from Thermo Fisher), and the same number of freshly isolated lung cancer tumor cells (No. B5) were cultured under different medium formulations. The culture mediums were replaced every 4 days after the start of culture. After 12 days of culture, cell counts were performed. The basic medium (BM) without addition of any additive was used as a control. The results were shown in FIGS. 1A-D. The ordinate in the figures represents the ratio of the number of cells obtained after culture in different mediums to the number of cells obtained after culture in basic medium BM.

Molecule	effect on cell proliferation (ratio of cell number to that in basic medium BM)
insulin-like growth factor 1: growth factor from Sino Biological Inc.	certain promoting effects on cell proliferation
hepatocyte growth factor: growth factor from Sino Biological Inc.	certain promoting effects on cell proliferation
CN1C(=O)C(c2c(F)cccc2F)N(C)c2nc(Nc3ccc(S(N)(=O)=O)cc3)ncc21 (stereo not shown) [Compound 1, 4-((7-(2,6-difluorophenyl)-5,8-dimethyl-6-oxo-5,6,7,8-tetrahydropteridin-2-yl)amino)benzsulfamide]	certain promoting effects on cell proliferation
Cc1cccc(-c2nn(C(=S)Nc3ccccc3)cc2-c2ccnc3ccccc23)n1 [Compound A83-01, A83-01, reference compound]	certain promoting effects on cell proliferation
C[C@@H](N)[C@H]1CC[C@H](C(=O)Nc2ccncc2)CC1 [Compound Y27632, Y27632, reference compound]	certain promoting effects on cell proliferation
interleukin 6: cytokine from Sino Biological Inc.	certain promoting effects on cell proliferation
B1	certain promoting effects on cell proliferation
